How the values were obtained:
HepG2 cell line = system: HepG2 cell line; set-up: method as in PMID 34237623; settings: read-out: IC50 against the HepG2 cell line; cited from earlier work
[1] = system: MCF-7, MDA-MB-468, BT-474 and HCC1937 breast cancer cells; assay: Fast screening / CV cell viability, breast cancer cell line panel; format: cell-based, human; set-up: reduction of cell viability: concentration or dose not given beside the values; settings: for anti-proliferative / cytotoxic effect: screening at 1, 10 and 50 µM; for concentration below which active in cytotoxicity screening / reduction of cell viability: initial screening; for IC50: Homo sapiens, read-out: IC50 values (National Cancer Institute guideline criterion); for reduction of cell viability: after 72 h of treatment
Method: (§1) For initial testing of the cytotoxic effect of the available glycophymine compounds (Table S2), cells were treated with compound in three concentrations: 1, 10 and 50 µM. Cells were seeded in 96-well plates and allowed to adhere overnight. Then they were treated for 72 h under standard culture conditions. […] For IC50 determination, the compounds were tested at seven concentrations (0.78, 1.56, 3.13, 6.25, 12.5, 25 and 50 µM). Subsequently, the cell viability was determined by using the crystal violet (CV) assay. Moreover, the selected compounds were tested against the mouse breast cancer cell line 4T1 (TNBC) as well. The compounds were prepared initially to obtain a stock solution of 20 mM in DMSO. Later, the working solutions were prepared by mixing the required amount of DMSO stock with the optimal medium for each cell line. The DMSO concentration in the final solution was always maintained lower than 0.5% to avoid any DMSO-derived side effects.
(§2) For CV assays, after 72 h treatment, the treatment medium was discarded from the 96-well plates, and the cells were washed using 50 µL of PBS. Cells were fixed by adding 50 µL of 4% (v/v) paraformaldehyde (PFA) in PBS for 15 min at room temperature (RT). Afterwards, PFA was discarded, and the plates were dried for 15 min at RT. 50 µL of CV working solution (0.1% w/v CV in PBS) were added to the wells, followed by 15 min incubation at RT. Subsequently, the CV solution was discarded, and the plates were washed using aqua bidest. (ddH2O) to remove any remaining CV solution. The plates were left to dry overnight at RT, and then 50 µL of 33% (v/v) acetic acid in ddH2O were added to each well. Finally, the absorbance was measured at 570 nm by using a SpectraMax M5 plate reader (Molecular Devices, California, USA) and at 670 nm as background wavelength. […] Additionally, gefitinib, an approved EGFR inhibitor of the quinazoline family, was tested as anti-proliferative positive control. The data represent the mean ± standard deviation derived from three independent biological replicates. Dose–response curves were generated by four-parametric non-linear regression analysis using the GraphPad Prism software (version: 10.1, San Diego, CA, USA). Based on that, IC50 values and standard deviations were calculated for each replicate individually.

MDA-MB-468 = assay: Crystal violet (CV) cell viability assay, IC50 determination; format: cell-based, human; settings: Homo sapiens, MDA-MB-468, 72 h treatment, mean ± SD
Method: as §1, §2

4T1 = assay: as above; format: cell-based; settings: Mus musculus, 72 h treatment, mean ± SD
Method: as §1, §2

BT-474 = assay: as above; format: cell-based; settings: Homo sapiens, 72 h treatment, mean ± SD
Method: as §1, §2

MCF-7 = assay: as above; format: cell-based; settings: Homo sapiens, MCF7, 72 h treatment, mean ± SD
Method: as §1, §2

HCC1937 = assay: as above; format: cell-based; settings: Homo sapiens, 72 h treatment, mean ± SD
Method: as §1, §2

IC50 (MDA-MB-468) [µM] | IC50 (4T1) [µM] | IC50 (BT-474) [µM] | IC50 (MCF-7) [µM] | IC50 (HCC1937) [µM] | Compound | IC50 (HepG2 cell line) [µM] | anti-proliferative / cytotoxic effect ([1]; 72 h) | cytotoxicity relative to compound 19 ([1]; 72 h, CV assay) | concentration below which active in cytotoxicity screening ([1]; 72 h) | IC50 ([1]; 72 h) [µg/mL] | reduction of cell viability [1] [%]
 |  |  |  |  | COc1cc(C(=O)c2nc3ccccc3c(=O)[nH]2)cc(OC)c1OC [2-(3,4,5-trimethoxybenzoyl)quinazolin-4(3H)-one] | 1.22 ± 0.12 |  |  |  |  | 
 |  |  |  |  | O=c1[nH]c(Nc2ccccc2)nc2ccccc12 [Compound 15, 2-(phenylamino)quinazolin-4(1H)-one] |  | did not show any cytotoxic effect |  |  |  | 
13 ± 0.4 | 23.5 ± 7.2 | 9.9 ± 1.5 | 10 ± 0.5 | 14.8 ± 3.7 | O=c1[nH]c(Nc2ccc(Cl)cc2)nc2ccccc12 [Compound 22] |  | significantly reduced cell proliferation | twofold less | below 10 µM | < 30 | ≥ 50
6.9 ± 0.2 | 7.9 ± 0.6 | 4.4 ± 0.1 | 5.7 ± 0.6 | 3.9 ± 0.2 | O=c1[nH]c(Nc2ccccc2)nc2cc([N+](=O)[O-])ccc12 [Compound 46] |  | significantly reduced cell proliferation |  | below 10 µM | < 30 | ≥ 50
8 ± 0.3 | 12.6 ± 1.2 | 4.5 ± 0.2 | 6.3 ± 0.4 | 4.4 ± 0.3 | O=c1[nH]c(Nc2ccccc2)nc2ccc([N+](=O)[O-])cc12 [Compound 47] |  | significantly reduced cell proliferation |  | below 10 µM | < 30 | ≥ 50
 |  |  |  |  | Nc1ccc2c(=O)[nH]c(Nc3ccccc3)nc2c1 [Compound 48] |  | completely lack cytotoxic activity |  |  |  | 
 |  |  |  |  | Nc1ccc2nc(Nc3ccccc3)[nH]c(=O)c2c1 [Compound 49] |  | completely lack cytotoxic activity |  |  |  | 

Compound | IC50 (MDA-MB-468) [µM] | IC50 (4T1) [µM] | IC50 (BT-474) [µM] | IC50 (MCF-7) [µM] | IC50 (HCC1937) [µM] | IC50 (HepG2 cell line) [µM] | anti-proliferative / cytotoxic effect ([1]; 72 h) | cytotoxicity relative to compound 19 ([1]; 72 h, CV assay) | concentration below which active in cytotoxicity screening ([1]; 72 h) | IC50 ([1]; 72 h) [µg/mL] | reduction of cell viability [1] [%]
O=c1[nH]c(Nc2ccc(Cc3ccc([N+](=O)[O-])cc3[N+](=O)[O-])cc2)nc2ccccc12 [Compound 24] | 11.2 ± 1.8 | 11.3 ± 3.5 | 9.7 ± 1.3 | 10.3 ± 1.3 | 11 ± 1.9 |  | significantly reduced cell proliferation |  | below 10 µM | < 30 | ≥ 50
